One series concerns the target T1, human EP2 receptors (Homo sapiens, UniProt P43116).
T1 construct: expressed in transfected cells
Briefly: cell-based cAMP TR-FRET assay, rightward shift of PGE2 concentration response curve (Schild KB), EP2. As to conditions: for mechanism of antagonism of EP2: Schild regression analysis. The procedure: KB value indicates the antagonist concentration required for a twofold rightward shift in the PGE2 dose-response curve. Thus, a lower KB value indicates a higher inhibitory potency.
(§1) The synthesis was carried out starting from commercially available 2-methyl indole or 2-trifluoromethyl indoles (11a-c), which on treatment with bromoacetonitrile provided intermediates (12a-c), which then were subjected to lithium aluminum hydride to reduce cyanide to amines. […] Synthesized derivatives were tested by using a cAMP-derived TR-FRET assay, at single concentration (1 μM) to observe a rightward shift of PGE2 (an EP2 agonist) concentration response curve in a C6G cell line that overexpresses human EP2 receptors.
A lower KB value indicates a higher inhibitory potency.
(§2) Intracellular cAMP was measured with a cell-based homogeneous time-resolved fluorescence resonance energy transfer (TR-FRET) method (Cisbio Bioassays). […] Endogenous cAMP produced by cells competes with labeled cAMP for binding to the cAMP antibody and thus reduces the FRET signal. Cells stably expressing human DP1, EP2, EP4, or IP receptors were seeded into 384-well plates in 30 μl complete medium (4,000 cells/well) and grown overnight. The medium was carefully withdrawn and 10 μl Hanks' Buffered Salt Solution (HBSS) (Hyclone) containing 20 μM rolipram was added into the wells to block phosphodiesterases. The cells were incubated at room temperature for 0.5-1 h and then treated with vehicle or test compound for 10 min before addition of increasing concentrations of appropriate agonist: BW245C for DP1, PGE2 for EP2 and EP4, or iloprost for IP. The cells were incubated at room temperature for 40 min, then lysed in 10 μl lysis buffer containing the FRET acceptor cAMP-d2 and 1 min later another 10 μl lysis buffer with anti-cAMP-Cryptate was added. After 60-90 min incubation at room temperature, the FRET signal was measured by an Envision 2103 Multilabel Plate Reader (PerkinElmer Life Sciences) with a laser excitation at 337 nm and dual emissions at 665 nm and 590 nm for d2 and Cryptate (50 s delay), respectively. The FRET signal was expressed as: F665/F590×10^4.
On the technique in general: TR-FRET usually uses a lanthanide donor and a delayed reading to cut background.

The target of the next series is T2, human DP1 receptors (Homo sapiens, UniProt Q13258).
T2 construct: expressed in transfected cells
T2 sequence (Q13258 1-359): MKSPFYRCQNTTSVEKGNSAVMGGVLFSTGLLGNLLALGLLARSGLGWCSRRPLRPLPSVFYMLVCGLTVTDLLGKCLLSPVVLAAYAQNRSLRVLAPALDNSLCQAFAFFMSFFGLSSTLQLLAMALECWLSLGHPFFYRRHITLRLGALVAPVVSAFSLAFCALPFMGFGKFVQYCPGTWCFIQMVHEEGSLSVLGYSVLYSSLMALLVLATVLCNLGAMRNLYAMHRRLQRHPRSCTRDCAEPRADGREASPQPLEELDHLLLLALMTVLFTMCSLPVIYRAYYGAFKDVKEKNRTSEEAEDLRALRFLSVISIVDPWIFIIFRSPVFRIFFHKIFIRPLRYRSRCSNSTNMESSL
Briefly: cell-based cAMP TR-FRET assay, DP1 (agonist BW245C). As to conditions: Table 2; for Kb: read-out: KB DP1. The procedure:
as §1
as §2, with “After 60-90 min incubation at room temperature, the FRET signal was measured by an Envision 2103 Multilabel Plate Reader (PerkinElmer Life Sciences) with a laser excitation at 337 nm and dual emissions at 665 nm and 590 nm for d2 and Cryptate (50 s delay), respectively.” left out

The next series addresses T3, human EP4 receptors (Homo sapiens, UniProt P35408).
T3 construct: expressed in transfected cells
Briefly: cell-based cAMP TR-FRET assay, EP4 (agonist PGE2). As to conditions: for Selective Index EP4/EP2 / potency estimated from few doses: Table 2; for potency estimated from few doses: extrapolated Schild KB from single concentration of 10 μM. The procedure: (§3) These derivatives were selected for testing against EP4 and IP receptors. Cell lines were created that overexpress EP4 receptors, or IP receptors on C6-glioma cells. A cAMP-derived TR-FRET assay was developed using agonists PGE2 (for EP4) and iloprost (for IP), similar to EP2 assay.
as §2

A further series concerns the target T4, human IP receptors (Homo sapiens, UniProt P43119).
T4 construct: expressed in transfected cells
Nature of the series: cell-based cAMP TR-FRET assay, IP (agonist iloprost). Conditions: Table 2; for potency estimated from few doses: extrapolated Schild KB from single concentration of 10 μM. The procedure:
as §3, §2

The next series can be described thus: in vitro. Conditions: rat.
A short description of series [1]: aqueous solubility by nephelometry. As to conditions: for aqueous solubility (in words): PBS buffer (pH 7.4) with 1% DMSO, nephelometry.
The nature of series [2]: liver microsomal stability, human.
Series [3] in a line: liver microsomal stability, mouse. A general note: Microsomes from liver hold many membrane-bound enzymes, among them those of drug oxidation.
Setting [4] is: Table 1, Schild KB from single antagonist concentration 1 μM, average of 2-3 measurements in duplicate, read-out: EP2 KB.
Where [5] appears, read: single concentration values, read-out: EP2 potency (Schild KB).
The mark [6] stands for this setting: Table 3, PBS buffer (pH 7.4) with 1% DMSO by nephelometry.

Values after ≈ are worked out from the molar mass of the structure shown. Like-named read-outs stand apart in the source and are kept apart here. Where only a bound is given, the exact number is not on record here.

T3 sequence (P35408 whole entry): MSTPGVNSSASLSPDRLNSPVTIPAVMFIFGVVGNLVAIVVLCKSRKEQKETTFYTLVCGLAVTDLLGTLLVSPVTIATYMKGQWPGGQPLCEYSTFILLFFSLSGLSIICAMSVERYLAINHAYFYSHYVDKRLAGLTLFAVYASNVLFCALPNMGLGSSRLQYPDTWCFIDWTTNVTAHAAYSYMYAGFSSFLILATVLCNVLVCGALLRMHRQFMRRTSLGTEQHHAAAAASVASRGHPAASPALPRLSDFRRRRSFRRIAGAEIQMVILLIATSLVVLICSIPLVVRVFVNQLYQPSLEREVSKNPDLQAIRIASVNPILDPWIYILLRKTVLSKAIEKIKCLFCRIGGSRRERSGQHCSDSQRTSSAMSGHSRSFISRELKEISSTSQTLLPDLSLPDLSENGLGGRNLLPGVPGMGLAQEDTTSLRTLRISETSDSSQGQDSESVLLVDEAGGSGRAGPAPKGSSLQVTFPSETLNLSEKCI
T1 sequence (P43116 whole entry): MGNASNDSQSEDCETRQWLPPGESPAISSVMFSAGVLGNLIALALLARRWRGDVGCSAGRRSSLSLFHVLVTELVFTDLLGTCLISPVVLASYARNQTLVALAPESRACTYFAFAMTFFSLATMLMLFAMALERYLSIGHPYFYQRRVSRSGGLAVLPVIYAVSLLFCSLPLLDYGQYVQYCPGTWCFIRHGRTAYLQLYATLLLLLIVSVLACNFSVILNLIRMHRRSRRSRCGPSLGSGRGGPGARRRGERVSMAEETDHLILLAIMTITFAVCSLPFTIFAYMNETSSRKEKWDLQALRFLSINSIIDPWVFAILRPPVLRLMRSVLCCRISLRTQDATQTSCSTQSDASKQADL
T4 sequence (P43119 whole entry): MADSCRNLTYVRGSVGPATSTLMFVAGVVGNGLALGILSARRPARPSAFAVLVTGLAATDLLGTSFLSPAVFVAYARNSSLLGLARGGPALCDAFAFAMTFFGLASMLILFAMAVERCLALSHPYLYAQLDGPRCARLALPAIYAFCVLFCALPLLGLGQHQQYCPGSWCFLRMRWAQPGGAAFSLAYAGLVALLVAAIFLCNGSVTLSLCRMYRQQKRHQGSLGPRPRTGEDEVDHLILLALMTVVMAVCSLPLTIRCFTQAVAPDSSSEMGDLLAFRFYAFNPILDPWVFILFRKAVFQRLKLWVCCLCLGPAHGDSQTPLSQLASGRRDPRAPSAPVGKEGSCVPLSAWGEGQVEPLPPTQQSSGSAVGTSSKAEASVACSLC
Procedure for C6-glioma cells: (§4) CC50 are average one measurement run in triplicate.
(§5) Several of compounds were examined against EP4 and IP receptors at single concentration of 10 μM.
Procedure for in vitro: as §4, §5

Consider `Cc1cc2ccccc2n1CCNC(=O)c1ccc2c(c1)n(C)c(=O)n2C` [Compound 8a, 1,3-Dimethyl-N-(2-(2-methyl-1H-indol-1-yl)ethyl)-2-oxo-2,3-dihydro-1H-benzo[d]imidazole-5-carboxamide], for which the Kb at human EP2 receptors (setting [4]) amounted to 0.0209 µM. Also, at human DP1 receptors, the “Selective Index (DP1/EP2)” value worked out at 300 and the Kb amounted to 6.29 µM. At human EP4 receptors, the “Selective Index EP4/EP2” value is 1730 and the potency estimated from few doses is 36.1 µM. Further, on human IP receptors, the “Selective Index (IP/EP2)” value amounted to 1200 and the potency estimated from few doses is 25.2 µM. For the same compound, in the series on C6-glioma cells (rat), the CC50 turned out to be 154 µM, the “Therapeutic Index (CC50/EP2 KB)” value is on record as 7,370 and the “concentration showing an effect on cell viability” value was > 100 µM.

Usually Solubility stands for how much of the substance goes into solution per volume. Compound `Cc1[nH]c2ccccc2c1CCNC(=O)/C=C/c1ccc(OCCO)cc1` [Compound 16d] gave a CC50 in “in vitro” of 81.7 µM. Also, the Kb on human EP2 receptors (Table 3, Schild KB from single concentration 1 μM, read-out: EP2 KB) is 0.0136 µM; at human EP2 receptors (Table 4, read-out: KB EP2) it was 0.0136 µM; at human EP2 receptors (setting [5]), 0.0114 to 0.0136 µM. Besides, the Solubility in series [1] (PBS buffer, pH 7.4, aqueous buffer, kinetic from dmso stock) was found to be 68 µM (≈ 24.8 µg/mL).

With `Cc1cc2ccccc2n1CCNC(=O)c1ccc(N(C)C)cc1` [Compound 6e, 4-(Dimethylamino)-N-(2-(2-methyl-1H-indol-1-yl)ethyl)benzamide], the values for the Kb on human EP2 receptors (setting [4]) and at human DP1 receptors were 0.0098 µM and 6.43 µM, respectively. The potency estimated from few doses at human EP4 receptors is 51 µM; on human IP receptors it was 4.7 µM. In the series on C6-glioma cells (rat), this compound displayed a CC50 of 310 µM.

Turning to `Cc1cc2ccccc2n1CCNC(=O)c1ccc(N2CCCCC2)cc1` [Compound 7k, N-(2-(2-Methyl-1H-indol-1-yl)ethyl)-4-(piperidin-1-yl)benzamide], the “fold improved/higher EP2 potency in comparison to 6b” value at human EP2 receptors is “about 2.3 fold”. Besides, the Kb at human EP2 receptors (setting [4]) amounted to 0.0094 µM. In addition, at human DP1 receptors, the “Selective Index (DP1/EP2)” value is recorded as 273 and the Kb is 2.57 µM. In addition, at human EP4 receptors, the “Selective Index EP4/EP2” value is 3,210 and the potency estimated from few doses is 30.2 µM. Also, at human IP receptors, the “Selective Index (IP/EP2)” value is 360 and the potency estimated from few doses is 3.4 µM. In addition, in the series with C6-glioma cells (rat), the CC50 is 315 µM and the “Therapeutic Index (CC50/EP2 KB)” value is given as 33,510.

`COc1cc(/C=C/C(=O)NCCn2c(CNC3CCN(C)CC3)cc3ccccc32)cc(OC)c1OC` [Compound 15m] registered a Solubility in series [1] (setting [6]) of 180 µM (≈ 91.2 µg/mL).

As to `Cc1cc2ccccc2n1CCNC(=O)c1ccc(N2CCOCC2)c(F)c1` [Compound 7t], in “in vitro”, the CC50 is > 500 µM. On human DP1 receptors, the “Selective Index (DP1/EP2)” value is listed as 85. Besides, the “selectivity over EP4” value on human EP4 receptors (EP2 over EP4) is listed as ~600 fold. Further, on human EP4 receptors, the “Selective Index EP4/EP2” value came to 565 and the potency estimated from few doses was 14.5 µM. Besides, on human IP receptors, the “Selective Index (IP/EP2)” value turned out to be 217 and the potency estimated from few doses was 5.6 µM. Further, the “Therapeutic Index (CC50/EP2 KB)” value with C6-glioma cells (rat) is listed as >19,450.

Consider `Cc1cc2ccccc2n1CCNC(=O)c1ccc(N2CCOCC2)cc1` [Compound 7p, N-(2-(2-Methyl-1H-indol-1-yl)ethyl)-4-morpholinobenzamide], for which, on human EP2 receptors, the “fold improved/higher EP2 potency in comparison to 6b” value was “about 2.3 fold” and the “mechanism of antagonism of EP2” value is “competitive”. Also, the Kb at human EP2 receptors (setting [4]) was determined as 0.0096 µM. On human DP1 receptors, the “Selective Index (DP1/EP2)” value came out at 533 and the Kb was 5.21 µM. In addition, on human EP4 receptors, the “Selective Index EP4/EP2” value was 2,190 and the potency estimated from few doses is 21 µM. Also, at human IP receptors, the “Selective Index (IP/EP2)” value was 206 and the potency estimated from few doses was 1.98 µM. Besides, in the series with C6-glioma cells (rat), the CC50 came to 289 µM and the “Therapeutic Index (CC50/EP2 KB)” value is 30,100.

`Cc1cc2ccccc2n1CCNC(=O)c1ccc(N2CCC(C(=O)O)CC2)cc1` [Compound 7n]: the Kb at human EP2 receptors (setting [4]) turned out to be 0.0897 µM. In addition, the “aqueous solubility (in words)” value in series [1] was “high aqueous solubility”.

`COc1cc(/C=C/C(=O)NCCn2c(CN3CCOCC3)cc3ccccc32)cc(OC)c1OC` [Compound 15l]: the Solubility in series [1] (setting [6]) turned out to be 91 µM (≈ 43.6 µg/mL).

For `Cc1cc2ccccc2n1CCNC(=O)c1ccc(-c2nnn[nH]2)cc1` [Compound 7z], the CC50 in the series “in vitro” was > 300 µM. Moreover, the “aqueous solubility (in words)” value in series [1] is “high aqueous solubility”. The potency estimated from few doses on human EP4 receptors and at human IP receptors was > 10000 µM throughout.

Take `Cc1[nH]c2ccccc2c1CCNC(=O)/C=C/c1ccc(OCCO)c(OCCO)c1` [Compound 16c, (E)-3-(3,4-bis(2-hydroxyethoxy)phenyl)-N-(2-(2-methyl-1H-indol-3-yl)ethyl)acrylamide]: the “% of Parent Compound Remaining at 60 min vs. T = 0 min, Human Liver Microsomes” value in [2] (1 μM) was determined as 58.5%; in series [2] (10 μM), 70.4%. The “aqueous solubility (in words)” value in [1] is listed as “very soluble”. The compound also displayed a Solubility in [1] (setting [6]) of 235 µM (≈ 99.8 µg/mL). Also, the figures for the “% of Parent Compound Remaining at 60 min vs. T = 0 min, Mouse Liver Microsomes” value in series [3] (1 μM) and in series [3] (10 μM) were 7.1% and 19.3%, respectively.

For the compound `CCN(CC)c1ccc(C(=O)NCCc2c(C)[nH]c3ccccc23)cc1` [Compound 9a, 4-(Diethylamino)-N-(2-(2-methyl-1H-indol-3-yl)ethyl)benzamide], in the series “in vitro”, the CC50 was > 500 µM. In addition, the “mechanism of antagonism of EP2” value at human EP2 receptors is reported as “competitive”. The Kb was 0.0069 µM on human EP2 receptors (setting [4]), ~0.01 µM at human EP2 receptors (setting [5]) and 9.48 µM on human DP1 receptors. In addition, the “Selective Index (DP1/EP2)” value on human DP1 receptors came to 1374. Besides, the “Selective Index EP4/EP2” value on human EP4 receptors is given as 6,945. Besides, the potency estimated from few doses at human EP4 receptors was 48 µM; at human IP receptors it was > 10000 µM. Further, the “Therapeutic Index (CC50/EP2 KB)” value in the series with C6-glioma cells (rat) was >72,460.

For the compound `COc1cc(/C=C/C(=O)NCCn2c(C)cc3ccccc32)cc(OC)c1OC` [Compound 15a], the “% of Parent Compound Remaining at 60 min vs. T = 0 min, Human Liver Microsomes” value in [2] (1 μM) was found to be 0.1%; in series [2] (10 μM), 10.6%. Also, the Solubility in series [1] (setting [6]) worked out at 45 µM (≈ 17.8 µg/mL). For the same compound, in the series with C6-glioma cells (read-out: Cytotoxicity (CC50), Table 4), the CC50 came out at 172 µM. Moreover, the “% of Parent Compound Remaining at 60 min vs. T = 0 min, Mouse Liver Microsomes” value is listed as 0.2% in series [3] (1 μM) and 4.8% in series [3] (10 μM). Moreover, the “% remaining at 60 minutes in mouse liver microsomes” value in series [3] (at 1 μM concentration) is 0.2%.

Turning to `Cc1cc2ccccc2n1CCNC(=O)/C=C/c1ccc(OCCCO)cc1` [Compound 16e], the Solubility in [1] (setting [6]) was found to be 66 µM (≈ 25 µg/mL).
